According to patent publication EP2431041A1, “PHARMACEUTICAL COMPOSITION FOR TREATING CARDIOVASCULAR DISORDER AND USE THEREOF” (Chengdu Kanghong Pharmaceutical Co., Ltd., priority 2009, dated 2010):

How the values were obtained:
[1] = tested on: rabbit with lipid disorders; test: lipid disorders in rabbit, serum TC and TG (Test Example 8); type: in vivo, Japanese white rabbit
Source text: Procedure: Animals were subjected to acclimation feeding for 10 days. […] After raised with the feed for 15 days, the animals were subjected to blood sampling from central ear artery while fasting. The sera were separated and analyzed for various blood lipid indices. From 40 animals raised with the high-fat feed, 30 animals were selected on the basis of TC content and assigned into five groups by randomized block design with six animals per group; six animals raised with the basal feed were used as the blank control group. […] Administration lasted for 4 weeks. […] ANOVA of randomized block design was used for comparisons among multiple groups, and SNK-q test was used for comparisons between two groups.
Blood samples were collected from the fasting animals in each of the groups of the experiment prior to the administration and in 24 h after the final administration and assayed for the content of total cholesterol (TC) and triglyceride (TG). Table 11 Effect of the drugs in each of the groups on serum TC and TG levels ( x ± s, n =6).

[2] = tested on: rat with an acute myocardial ischemia caused by PIT; test: rat myocardial ischemia caused by pituitrin (PIT), ST segment of ECG (Test Example 5); type: in vivo, SD rats; conditions: for ΔST Σ: sum of ST segment shift; for ΔST 10 sec / ΔST 30 sec / ΔST 1 min / ΔST 2 min / ΔST 4 min / ΔST 6 min / ΔST 8 min / ΔST 10 min / ΔST 13 min / ΔST 15 min: time after PIT injection
Experimental: Each animal in all groups was intragastrically administered with the corresponding drug at a volume of 10 ml/kg, for 7 successive days. The rat was injected intraperitoneally with 1% sodium pentobarbital (30 mg/kg) 100 min after the final administration. When anesthetized, the animal was immobilized onto a frog board and subjected to trace of normal electrocardiogram over 2 min with Lead II. Then, PIT (1.5 IU/kg) was injected slowly over 20 s into the rat through its tail vein. The changes in the electrocardiogram were traced in 15 min after PIT injection. The data from the ST segment were collected at the time-points of 10 s, 30 s, 1 min, 2 min, 4 min, 6 min, 8 min, 10 min, 13 min, and 15 min. ST segment shifts at the various time-points after modeling were compared.

[3] = tested on: Beagle canines; test: long-term toxicity test in canine (21 days): ALT in blood and other indices; type: in vivo; conditions: intragastric once per day
Source text: Animals: Conventional, healthy adult Beagle canines, evenly composed of males and females, 6-8 month-old, body weight of 9 - 11 kg.
Medicaments: Z01 (echinocystic acid:oleanolic acid = 3:1, prepared by the method in Example 4, in which the total content of the echinocystic acid and the oleanolic acid is 99%), in-house-made off-white tablet, Lot number: 090205; Z02 (echinocystic acid:oleanolic acid = 1:1, prepared by the method in Example 1, in which the amount of echinocystic acid and oleanolic acid accounts to 94.2% of the amount of the extract), in-house-made off-white tablet, Lot number: 090206; in-house-made echinocystic acid EA (containing 98.5% of echinocystic acid), pure-white powder, Lot number: 090107; physiological saline, colorless clarified liquid, provided by Chengdu QingShan LiKang Pharmarceutical co., Ltd., Lot number: A0803025; Alanine Transarninase (ALT) Kit, provided by Sichuan MiKe Science & Technology Co., Ltd., Lot number: 1007071.
Major instruments: a fully automated blood biochemistry analyzer (Roche Integra 400 Plus, Switzerland), a fully automated hematology analyzer (Abbott CELL-DYN 3700SL, USA), a fully automated blood coagulation analyzer (SYSMEX CA-500, Japan), a four-channel physiological recording system (RM6240, Chengdu Instrument Factory, China), electronic balance, etc.
Procedure: The normal Beagle canines were subjected to quanrantine for two weeks and a dog with abnormal parameters was rejected. The selected dogs were assigned randomly into ten groups: blank control group, low dose Z01 group (the dosage of echinocystic acid, 50 mg/kg), medium dose Z01group (the dosage of echinocystic acid, 150 mg/kg), high dose Z01 group (the dosage of echinocystic acid, 250 mg/kg), Z02 low dose group (the dosage of echinocystic acid, 50 mg/kg), medium dose Z02 group (the dosage of echinocystic acid, 150 mg/kg), high dose Z02 group (echinocystic acid is 250 mg/kg), low dose EA group (50mg/kg), medium dose EA group (150mg/kg), high dose EA group (250mg/kg), with 8 animals per group evenly composed of males and females. All of the dogs in individual groups were intragastrically administered at a volume of 10 ml/kg, once per day and successively for 21 days. Prior to and at Day 21 after the administration, samples of urine excreted naturally in the morning and blood from forelimb vein were collected respectively for urine routine, blood routine, and coagulation-time determination, meanwhile the lead II electrocardiogram was traced. Prior to the administration and at Day 4, Day 7, Day 14, and Day 21 after the first administration, blood samples were collected from the canine forelimb vein and assayed on the biochemical indicator associated with liver function. In twenty-four hours after the final administration, the animals in each group were dissected, autopsied systematically and observed with naked eyes. The parenchymal organs were weighed, subjected to calculation of organ coefficients, and examined histopathologically. […] Pathologic results were descriptively discussed.

[4] = OA 4.0 mg/kg intragastric 4 weeks
[5] = OA 17.0 mg/kg intragastric 7 days
[6] = EA 12.2 mg/kg intragastric 4 weeks
[7] = echinocystic acid content 50 mg/kg
[8] = echinocystic acid content 150 mg/kg
[9] = echinocystic acid content 250 mg/kg
[10] = EA 50.8 mg/kg intragastric 7 days

## CC1(C)CC[C@]2(C(=O)O)CC[C@]3(C)C(=CC[C@@H]4[C@@]5(C)CC[C@H](O)C(C)(C)[C@@H]5CC[C@]43C)[C@@H]2C1 [OA, oleanolic acid]
[1]; [4]
  Serum TC After administration: 12.05 ± 6.48 mmol/L
  Serum TC prior to administration: 14.97 ± 5.22 mmol/L
  Serum TG After administration: 1.83 ± 1.02 mmol/L
  Serum TG prior to administration: 2.06 ± 0.44 mmol/L
[2]; [5]
  ΔST Σ: 0.739± 0.408Δ mV
  ΔST 10 sec: 0.132± 0.113 mV
  ΔST 30 sec: 0.068± 0.044 mV
  ΔST 1 min: 0.079± 0.052 mV
  ΔST 2 min: 0.061± 0.034 mV
  ΔST 4 min: 0.082± 0.055 mV
  ΔST 6 min: 0.080± 0.067 mV
  ΔST 8 min: 0.073± 0.037 mV
  ΔST 10 min: 0.051± 0.032 mV
  ΔST 13 min: 0.060± 0.037 mV
  ΔST 15 min: 0.053± 0.042 mV

## CC1(C)CC[C@]2(C(=O)O)[C@H](O)C[C@]3(C)C(=CC[C@@H]4[C@@]5(C)CC[C@H](O)C(C)(C)[C@@H]5CC[C@]43C)[C@@H]2C1 [EA, echinocystic acid]
[1]; [6]
  Serum TC After administration: 9.77 ± 6.30 mmol/L
  Serum TC prior to administration: 15.07 ± 5.48 mmol/L
  Serum TG After administration: 1.64 ± 0.89 mmol/L
  Serum TG prior to administration: 2.17 ± 1.04 mmol/L
[3]; [7]
  ALT at different time-points after administration, Day 4: 41.4±9.3 U/L
  ALT at different time-points after administration, Day 7: 60.3±11.6 U/L
  ALT at different time-points after administration, Day 14: 58.3±9.1 U/L
  ALT at different time-points after administration, Day 21: 69.7±6.2 U/L
  ALT, Prior to administration: 38.8±5.8 U/L
[3]; [8]
  ALT at different time-points after administration, Day 4: 42.6±8.9 U/L
  ALT at different time-points after administration, Day 7: 70.6±22.3 U/L
  ALT at different time-points after administration, Day 14: 121.3±19.3 U/L
  ALT at different time-points after administration, Day 21: 124.5±35.3 U/L
  ALT, Prior to administration: 40.3±6.2 U/L
[3]; [9]
  ALT at different time-points after administration, Day 4: 45.4±9.9 U/L
  ALT at different time-points after administration, Day 7: 146.5±49.0 U/L
  ALT at different time-points after administration, Day 14: 167.5±43.3 U/L
  ALT at different time-points after administration, Day 21: 151.3±86.6 U/L
  ALT, Prior to administration: 37.3±5.2 U/L
[2]; [10]
  ΔST Σ: 0.653± 0.367 mV
  ΔST 10 sec: 0.089± 0.089 mV
  ΔST 30 sec: 0.060± 0.053 mV
  ΔST 1 min: 0.064± 0.032 mV
  ΔST 2 min: 0.075± 0.063 mV
  ΔST 4 min: 0.060± 0.039 mV
  ΔST 6 min: 0.063± 0.045 mV
  ΔST 8 min: 0.070± 0.048 mV
  ΔST 10 min: 0.061± 0.042 mV
  ΔST 13 min: 0.055± 0.039 mV
  ΔST 15 min: 0.056± 0.048 mV
